Legend:
HL 60 cells = assay: HL 60 differentiation induction (NBT reduction to formazan); format: cell-based; settings: Homo sapiens, 96 hours incubation, formazan at 650 nm, read-out: ED50 (differentiation induction of HL 60 cells to macrophages)
Experimental: HL 60 cells are cultivated in tissue-culture medium (RPMI-10% fetal calf serum) at 37° C. in an atmosphere of 5% CO2 in air.
For substance testing, the cells are centrifuged off and 2.8 ×10^5 cells/ml in phenol red-free tissue-culture medium are taken up. The test substances are dissolved in ethanol and diluted with tissue-culture medium without phenol red to the desired concentration. The dilution stages are mixed with the cell suspension in a ratio of 1:10 and pipetted in 100 μl each of this cell suspension mixed with substance in an indentation of a 96-hole plate. For control, a cell suspension is analogously mixed with the solvent.
After incubation over 96 hours at 37° C. in 5% CO2 in air, 100 μl of an NBT-TPA solution (nitro blue tetrazolium (NBT), final concentration in the batch of 1 mg/ml, tetradecanoyl phorbol myristate-13-acetate (TPA), final concentration in the batch of 2 ×10^-7 mol/l) is pipetted in the cell suspension in every indentation of the 96-hole plate.
By incubation over 2 hours at 37° C. and 5% CO2 in air, NBT is reduced to insoluble formazan because of the intracellular oxygen radical release, stimulated by TPA, in the cells differentiated to macrophages.
For completion of the reaction, the indentations of the 96-hole plate are suctioned off, and the adhering cells are fixed by adding methanol and dried after fixing.
To dissolve the formed intracellular formazan crystals, 100 μl of potassium hydroxide (2 val/l) and 100 μl of dimethyl sulfoxide are pipetted in each indentation and ultrasonically treated for 1 minute. The concentration of formazan is measured by spectrophotometry at 650 nm.
The concentration of formed formazan is regarded as a measurement for the differentiation induction of the HL 60 cells to macrophages.

[1] = hypercalcemic and hypercalcinuric activity in vivo; parameters: species or system Wistar rats; settings: for calcium excretion in urine, second collecting phase (16-22 hours): after oral calcium, solvent control 1.5 μmol/animal; for calcium excretion in urine, first collecting phase (0-16 hours): solvent control 12.2 μmol/animal; for calcium excretion in second collecting phase (16-22 hours), result in words: 200 μg/kg s.c. versus calcitriol 2 μg/kg and solvent control; for serum calcium concentration: 22 hours after administration, solvent control 3.0 mmol/l; for hypercalcemia induction: 200 μg/kg subcutaneous; for hypercalcemia induction / in vivo potency reduced by factor in comparison to calcitriol: male Wistar rats; for in vivo potency reduced by factor in comparison to calcitriol: calcium metabolism, subcutaneous
Experimental: To assess the corresponding activities of the substances according to the invention, the hypercalcemic and hypercalcinuric activity in vivo is determined. […] Urine is collected in the period of 0-16 hours after substance administration. Then, the animals orally receive 1 μmol of calcium in 6.5% klucel (hydroxypropyl cellulose) and again urine is collected for the period of 16-22 hours after substance administration. The urine volume of each fraction is measured to measure the absolute calcium excretion. After 22 hours, the animals are killed by decapitation and the blood is collected. The calcium concentration in serum and urine is determined by flame photometry.

| SMILES | EC50 (HL 60 cells) [nM] | calcium excretion in urine, second collecting phase (16-22 hours) ([1]; calcitriol 2 μg/kg s.c.) [μmol/animal] | calcium excretion in urine, first collecting phase (0-16 hours) ([1]; calcitriol 2 μg/kg s.c.) [μmol/animal] | calcium excretion in second collecting phase (16-22 hours), result in words [1] | serum calcium concentration ([1]; 200 μg/kg s.c.) [mmol/L] | calcium excretion in urine, second collecting phase (16-22 hours) ([1]; 200 μg/kg s.c.) [μmol/animal] | calcium excretion in urine, first collecting phase (0-16 hours) ([1]; 200 μg/kg s.c.) [μmol/animal] | hypercalcemia induction [1] | in vivo potency reduced by factor in comparison to calcitriol [1] |
| --- | --- | --- | --- | --- | --- | --- | --- | --- | --- |
| C=C1/C(=C\C=C2/CCC[C@]3(C)[C@@H]([C@H](C)CCCC(C)(C)O)CC[C@@H]23)C[C@@H](O)C[C@@H]1O [calcitriol, 1α,25-Dihydroxycholecalciferol, reference compound] | 1.6 | 25.1 | 40.6 | – | – | – | – | – | – |
| C=C1/C(=C\C=C2/CCC[C@]3(C)[C@@H]([C@H](C)/C=C/COCC(C)(C)O)CC[C@@H]23)C[C@@H](O)C[C@@H]1O [compound 16, (5Z,7E,22E)-(1S,3R)-24-(2-Hydroxy-2-methylpropoxy)-9,10-secochola-5,7,10(19),22-tetraene-1,3-diol] | 3.2 | – | – | not increased relative to the solvent control | 3.0 | 3.6 | 62.4 | no hypercalcemia | > 100 |
| C=C1/C(=C\C=C2/CCC[C@]3(C)[C@@H]([C@H](C)/C=C/COCC(O)(CC)CC)CC[C@@H]23)C[C@@H](O)C[C@@H]1O [compound 17, (5Z,7E,22E)-(1S,3R)-24-(2-Ethyl-2-hydroxybutoxy)-9,10-secochola-5,7,10(19),22-tetraene-1,3-diol] | 1 | – | – | not significantly different to the standard calcitriol | 3.4 | 47.0 | 61.7 | slight hypercalcemia | ~100 |

Source: patent publication US5663157A, “22-en-25-oxa derivatives in the vitamin D series, process for their production, pharmaceutical preparations containing these derivatives as well as their use as pharmaceutical agents” (Schering Aktiengesellschaft, priority 1992, dated 1997)
